Patent publication US6737383B1, “Herbicidal oxadiazolidines” (priority 1999, dated 2004)

How the values were obtained:
cocklebur = assay: Test B pre/postemergence cocklebur; format: in vivo, Xanthium strumarium
Summary of the method: (§1)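 Test chemicals in a non-phytotoxic solvent mixture with surfactant were sprayed preemergence onto planted seeds and postemergence onto plants 2 to 18 cm tall (1- to 4-leaf stage). After twelve to sixteen days in a greenhouse, injury was visually rated against untreated controls from 0 (no effect) to 10 (complete control).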

wild oat = assay: Test B pre/postemergence wild oat; format: in vivo, Avena fatua
Summary of the method: as §1

velvetleaf = assay: Test B pre/postemergence velvetleaf; format: in vivo, Abutilon theophrasti
Summary of the method: as §1

surinam grass = assay: Test B pre/postemergence surinam grass; format: in vivo, Brachiaria decumbens
Summary of the method: as §1

pigweed = assay: Test B pre/postemergence pigweed; format: in vivo, Amaranthus retroflexus
Summary of the method: as §1

purple nutsedge = assay: Test B pre/postemergence purple nutsedge; format: in vivo, Cyperus rotundus
Summary of the method: as §1

sugar beet = assay: Test B pre/postemergence sugar beet; format: in vivo, Beta vulgaris
Summary of the method: as §1

rice = assay: Test B flood test rice; format: in vivo, Oryza sativa
Summary of the method: (§2)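 Read-out is a visual response score from 0 (no effect) to 10 (complete control), assigned by comparison with untreated controls. Treatment was applied at the 2-leaf stage, and plants stayed in the greenhouse for twelve to sixteen days before scoring.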

crabgrass = assay: Test B pre/postemergence crabgrass; format: in vivo, Digitaria sanguinalis
Summary of the method: as §1

giant foxtail = assay: Test B pre/postemergence giant foxtail; format: in vivo, Setaria faberii
Summary of the method: as §1

duck salad = assay: Test B flood test duck salad; format: in vivo, Heteranthera limosa
Summary of the method: as §2

morningglory = assay: Test B pre/postemergence morningglory; format: in vivo, Ipomoea hederacea
Summary of the method: as §1

bamyardgrass = assay: Test B flood test barnyardgrass; format: in vivo, Echinochloa crus-galli
Summary of the method: as §2

wheat = assay: Test B pre/postemergence wheat; format: in vivo, Triticum aestivum
Summary of the method: as §1

blackgrass = assay: Test B pre/postemergence blackgrass; format: in vivo, Alopecurus myosuroides
Summary of the method: as §1

bedstraw = assay: Test B pre/postemergence bedstraw; format: in vivo, Galium aparine
Summary of the method: as §1

[1] = Postemergence, Rate 31 g/ha, visual rating, scale 0 to 10 (0 no effect, 10 complete control)
[2] = Preemergence, Rate 31 g/ha, visual rating, scale 0 to 10 (0 no effect, 10 complete control)
[3] = Preemergence, Rate 62 g/ha, scale of 0 to 10 where 0 is no effect and 10 is complete control
[4] = Preemergence, Rate 250 g/ha, scale of 0 to 10 where 0 is no effect and 10 is complete control
[5] = Rate 62 g/ha, Postemergence, scale 0 to 10 (0 no effect, 10 complete control)
[6] = Rate 125 g/ha, Postemergence, scale of 0 to 10 where 0 is no effect and 10 is complete control
[7] = Rate 125 g/ha, Preemergence, scale of 0 to 10 where 0 is no effect and 10 is complete control
[8] = Rate 250 g/ha, Postemergence, scale of 0 to 10 where 0 is no effect and 10 is complete control
[9] = Rate 31 g/ha, Pre-emergence section (flood test species), scale 0 to 10
[10] = Rate 62 g/ha, headed Pre-emergence (flood test species), scale 0 to 10 (0 no effect, 10 complete control)
[11] = Rate 125 g/ha, Pre-emergence, flood test species, scale 0 to 10 where 0 is no effect and 10 is complete control
[12] = Rate 250 g/ha, Pre-emergence, flood-test species, scale 0 to 10, 0 is no effect, 10 is complete control

Structure (SMILES): CC(C)N(C(=O)n1oc(=O)n(CCCCF)c1=O)c1ccc(F)cc1 [Compound 289]
- Cocklebur plant response rating (cocklebur; [1]): 0
- Cocklebur plant response rating (cocklebur; [2]): 0
- Cocklebur plant response rating (cocklebur; [3]): 0
- Cocklebur plant response rating (cocklebur; [4]): 0
- Cocklebur plant response rating (cocklebur; [5]): 0
- Cocklebur plant response rating (cocklebur; [6]): 1
- Cocklebur plant response rating (cocklebur; [7]): 0
- Plant response rating, Cocklebur (cocklebur; [8]): 2
- Wild oats plant response rating (wild oat; [1]): 0
- Wild oats plant response rating (wild oat; [2]): 0
- Wild oats plant response rating (wild oat; [3]): 1
- Wild oats plant response rating (wild oat; [4]): 8
- Wild oats plant response rating (wild oat; [5]): 0
- Wild oats plant response rating (wild oat; [6]): 3
- Plant response rating, Wild oats (wild oat; [8]): 3
- Velvetleaf plant response rating (velvetleaf; [1]): 0
- Velvetleaf plant response rating (velvetleaf; [2]): 0
- Velvetleaf plant response rating (velvetleaf; [3]): 3
- Velvetleaf plant response rating (velvetleaf; [4]): 7
- Velvetleaf plant response rating (velvetleaf; [5]): 0
- Velvetleaf plant response rating (velvetleaf; [6]): 0
- Velvetleaf plant response rating (velvetleaf; [7]): 6
- Plant response rating, Velvetleaf (velvetleaf; [8]): 3
- B. signalgrass plant response rating (surinam grass; [1]): 0
- B. signalgrass plant response rating (surinam grass; [2]): 2
- B. signalgrass plant response rating (surinam grass; [3]): 7
- B. signalgrass plant response rating (surinam grass; [4]): 8
- B. signalgrass plant response rating (surinam grass; [5]): 0
- B. signalgrass plant response rating (surinam grass; [6]): 3
- B. signalgrass plant response rating (surinam grass; [7]): 7
- Plant response rating, B. signalgrass (surinam grass; [8]): 3
- Redroot pigweed plant response rating (pigweed; [1]): 0
- Redroot pigweed plant response rating (pigweed; [2]): 5
- Redroot pigweed plant response rating (pigweed; [3]): 5
- Redroot pigweed plant response rating (pigweed; [4]): 8
- Redroot pigweed plant response rating (pigweed; [5]): 0
- Redroot pigweed plant response rating (pigweed; [6]): 5
- Redroot pigweed plant response rating (pigweed; [7]): 6
- Plant response rating, Redroot pigweed (pigweed; [8]): 7
- Nutsedge plant response rating (purple nutsedge; [1]): 0
- Nutsedge plant response rating (purple nutsedge; [2]): 0
- Nutsedge plant response rating (purple nutsedge; [3]): 0
- Nutsedge plant response rating (purple nutsedge; [4]): 0
- Nutsedge plant response rating (purple nutsedge; [5]): 0
- Nutsedge plant response rating (purple nutsedge; [6]): 0
- Nutsedge plant response rating (purple nutsedge; [7]): 0
- Plant response rating, Nutsedge (purple nutsedge; [8]): 0
- Sugarbeets plant response rating (sugar beet; [1]): 0
- Sugarbeets plant response rating (sugar beet; [2]): 0
- Sugarbeets plant response rating (sugar beet; [3]): 2
- Sugarbeets plant response rating (sugar beet; [4]): 8
- Sugarbeets plant response rating (sugar beet; [5]): 0
- Sugarbeets plant response rating (sugar beet; [6]): 0
- Sugarbeets plant response rating (sugar beet; [7]): 6
- Plant response rating, Sugarbeets (sugar beet; [8]): 0
- Rice plant response rating (rice; [9]): 0
- Rice plant response rating (rice; [10]): 0
- Rice plant response rating (rice; [11]): 0
- Rice plant response rating (rice; [12]): 1
- Crabgrass plant response rating (crabgrass; [1]): 0
- Crabgrass plant response rating (crabgrass; [2]): 1
- Crabgrass plant response rating (crabgrass; [3]): 2
- Crabgrass plant response rating (crabgrass; [4]): 4
- Crabgrass plant response rating (crabgrass; [5]): 3
- Crabgrass plant response rating (crabgrass; [6]): 5
- Crabgrass plant response rating (crabgrass; [7]): 3
- Plant response rating, Crabgrass (crabgrass; [8]): 9
- Giant foxtail plant response rating (giant foxtail; [1]): 2
- Giant foxtail plant response rating (giant foxtail; [2]): 9
- Giant foxtail plant response rating (giant foxtail; [3]): 10
- Giant foxtail plant response rating (giant foxtail; [4]): 10
- Giant foxtail plant response rating (giant foxtail; [5]): 2
- Giant foxtail plant response rating (giant foxtail; [6]): 5
- Giant foxtail plant response rating (giant foxtail; [7]): 10
- Plant response rating, Giant foxtail (giant foxtail; [8]): 7
- Ducksalad plant response rating (duck salad; [9]): 0
- Ducksalad plant response rating (duck salad; [10]): 0
- Ducksalad plant response rating (duck salad; [11]): 0
- Ducksalad plant response rating (duck salad; [12]): 0
- Morningglory plant response rating (morningglory; [1]): 2
- Morningglory plant response rating (morningglory; [2]): 0
- Morningglory plant response rating (morningglory; [3]): 0
- Morningglory plant response rating (morningglory; [4]): 0
- Morningglory plant response rating (morningglory; [5]): 3
- Morningglory plant response rating (morningglory; [6]): 6
- Morningglory plant response rating (morningglory; [7]): 0
- Plant response rating, Morningglory (morningglory; [8]): 8
- Barnyardgrass plant response rating (bamyardgrass; [9]): 0
- Barnyardgrass plant response rating (bamyardgrass; [10]): 0
- Barnyardgrass plant response rating (bamyardgrass; [11]): 0
- Barnyardgrass plant response rating (bamyardgrass; [12]): 3
- Wheat plant response rating (wheat; [1]): 0
- Wheat plant response rating (wheat; [2]): 0
- Wheat plant response rating (wheat; [3]): 0
- Wheat plant response rating (wheat; [4]): 2
- Wheat plant response rating (wheat; [5]): 2
- Wheat plant response rating (wheat; [6]): 5
- Wheat plant response rating (wheat; [7]): 2
- Plant response rating, Wheat (wheat; [8]): 7
- Blackgrass plant response rating (blackgrass; [1]): 2
- Blackgrass plant response rating (blackgrass; [2]): 6
- Blackgrass plant response rating (blackgrass; [3]): 8
- Blackgrass plant response rating (blackgrass; [4]): 9
- Blackgrass plant response rating (blackgrass; [5]): 5
- Blackgrass plant response rating (blackgrass; [6]): 9
- Blackgrass plant response rating (blackgrass; [7]): 9
- Plant response rating, Blackgrass (blackgrass; [8]): 9
- Bedstraw plant response rating (bedstraw; [1]): 0
- Bedstraw plant response rating (bedstraw; [2]): 0
- Bedstraw plant response rating (bedstraw; [3]): 0
- Bedstraw plant response rating (bedstraw; [4]): 7
- Bedstraw plant response rating (bedstraw; [5]): 0
- Bedstraw plant response rating (bedstraw; [6]): 3
- Bedstraw plant response rating (bedstraw; [7]): 4
- Plant response rating, Bedstraw (bedstraw; [8]): 8
